Assay results published in US11266655B2, “Methods and compositions for treating urea cycle disorders” (Camp4 Therapeutics Corporation, priority 2019, dated 2022).

B1: Anti mullerian hormone: member of the TGF-B gene family which mediates male sexual differentiation (protein, UniProt P03971 452-560, looked up)
Muellerian-inhibiting factor: SAGATAADGPCALRELSVDLRAERSVLIPETYQANNCQGVCGWPQSDRNPRYGNHVVLLLKMQVRGAALARPPCCVPTAYAGKLLISLSEERISAHHVPNMVATECGCR
B2: Wnt3a: secreted signaling protein of the WNT gene family (protein, UniProt P56704 19-352, looked up)
Protein Wnt-3a: SYPIWWSLAVGPQYSSLGSQPILCASIPGLVPKQLRFCRNYVEIMPSVAEGIKIGIQECQHQFRGRRWNCTTVHDSLAIFGPVLDKATRESAFVHAIASAGVAFAVTRSCAEGTAAICGCSSRHQGSPGKGWKWGGCSEDIEFGGMVSREFADARENRPDARSAMNRHNNEAGRQAIASHMHLKCKCHGLSGSCEVKTCWWSQPDFRAIGDFLKDKYDSASEMVVEKHRESRGWVETLRPRYTYFKVPTERDLVYYEASPNFCEPNPETGSFGTRDRTCNVSSHGIDGCDLLCCGRGHNARAERRREKCRCVFHWCCYVSCQECTRVYDVHTCK
B3: Nodal: 13 kDa member of the TGF-B superfamily (protein, UniProt Q96S42 238-347, looked up)
Nodal homolog: HHLPDRSQLCRKVKFQVDFNLIGWGSWIIYPKQYNAYRCEGECPNPVGEEFHPTNHAYIQSLLKRYQPHRVPSTCCAPVKTKPLSMLYVDNGRVLLDHHKDMIVEECGCL

What was measured:
Type in all cases: cell-based
OTC [1] = experiment: JAK inhibitors at 0.3 and 3 μM in primary human hepatocytes, OTC mRNA fold change; conditions: fold change vs DMSO
Description: (§1) Additional small molecules that inhibit JAK1, JAK2, JAK3, or a combination of the JAK proteins were tested in primary human hepatocytes as described in Example 2. JAK inhibitors were tested in triplicate at 0.3 μM and 3 μM. The results are shown as the fold change (mRNA FC) in the mRNA levels of OTC and CPS1 genes after treatment compared to an untreated control (DMSO) and the standard deviation (SD).

CPS1 [2] = experiment: JAK inhibitors at 0.3 and 3 μM in primary human hepatocytes, CPS1 mRNA fold change; conditions: fold change vs DMSO
Description: as §1

ASS1 = experiment: RNA-seq of compound-treated primary human hepatocytes, ASS1 expression; conditions: primary human hepatocytes, triplicate (Table 15, FIG. 7)
SLC25A15 = experiment: RNA-seq of compound-treated primary human hepatocytes, SLC25A15 expression; conditions: primary human hepatocytes, triplicate (Table 24, FIG. 16A-B)
CPS1 [3] = experiment: RNA-seq of compound-treated primary human hepatocytes, CPS1 expression; conditions: primary human hepatocytes, RNA-seq
OTC [4] = experiment: RNA-seq of compound-treated primary human hepatocytes, OTC expression; conditions: primary human hepatocytes, RNA-seq
ARG1 = experiment: RNA-seq of compound-treated primary human hepatocytes, ARG1 expression; conditions: primary human hepatocytes, RNA-seq (Table 7)
urea cycle genes = experiment: RNA-seq of primary human hepatocytes, compounds that modulate multiple urea cycle-related genes; conditions: primary human hepatocytes, RNA-seq; for Up-regulated Genes: urea cycle-related genes significantly increased (Table 10)

Molecule	OTC mRNA FC (OTC [1]; 0.3 uM)	OTC mRNA FC (OTC [1]; 3 uM)	CPS1 mRNA FC (CPS1 [2]; 0.3 uM)	CPS1 mRNA FC (CPS1 [2]; 3 uM)	Relative ASS1 level vs Untreated (±Standard Deviation) (ASS1; 1 μM)	Relative ASS1 level vs Untreated (±Standard Deviation) (ASS1; 3 μM)	Relative ASS1 level vs Untreated (±Standard Deviation) (ASS1; 10 μM)	Relative SLC25A15 level vs Untreated (±Standard Deviation) (SLC25A15; 0.3 μM)	Relative SLC25A15 level vs Untreated (±Standard Deviation) (SLC25A15; 3 μM)	Relative SLC25A15 level vs Untreated (±Standard Deviation) (SLC25A15; 10 μM)	CPS1 expression, Fold change (Log 2) vs untreated (CPS1 [3])	OTC expression, Fold change (Log 2) vs untreated (OTC [4])	Fold change (Log 2) vs untreated, ARG1 expression (ARG1)	number of urea cycle genes whose expression was significantly up-regulated (urea cycle genes)	Up-regulated Genes (urea cycle genes)
N#CCC1(n2cc(-c3ncnc4[nH]ccc34)cn2)CN(C2CCN(C(=O)c3ccnc(C(F)(F)F)c3F)CC2)C1 [itacitinib]	3.56	3.41	1.84	2.17											
CN1C/C=C/CCOc2cccc(c2)-c2ccnc(n2)Nc2cccc(c2)C1 [SB1317/TG02]	1.05	0.64	1.05	1.03	1.34 ± 0.12	1.90 ± 0.19	1.92 ± 0.18	1.36 ± 0.24	2.70 ± 0.34	2.71 ± 0.09					
Cc1cc(Nc2cc(CN3CCOCC3)c3nc(C)c(Cc4ccc(Cl)cc4F)n3n2)n[nH]1 [LYS2784544]	1.98	3.67	1.3	1.6											
FGF: Fibroblast Growth Factor-acidic (FGF-acidic), also known as FGF-1											1.72 Log 2	0.56 Log 2	1.24 Log 2	three	CPS1, OTC, ARG1
B1											2.35 Log 2	0.81 Log 2	2.06 Log 2	three	CPS1, OTC, ARG1
B2											2.6 Log 2	0.92 Log 2	2.07 Log 2	four	CPS1, OTC, ARG1, SLC25A15
B3											2.44 Log 2	0.68 Log 2	2.05 Log 2	three	CPS1, OTC, ARG1
